The conditions of this series: Liquid, Ebulliometric method (Recirculating still).

Numbers after ± are expanded uncertainties.

By vapor or sublimation pressure is commonly meant the equilibrium pressure above the liquid or solid. With `CN(C)C=O` [dimethylformamide], the “vapor or sublimation pressure” value (426.05 K) is 101.3 ± 3.6 kPa.
`CN1CCCC1=O` [N-methylpyrrolidone]: the “vapor or sublimation pressure” value (476.05 K) is on record as 101.3 ± 3.6 kPa.
For the compound `OCC(F)(F)C(F)F` [2,2,3,3-tetrafluoro-1-propanol], the “vapor or sublimation pressure” value (381.95 K) stood at 101.3 ± 3.6 kPa.
In the case of `CNC=O` [N-methylformamide], under “471.2 K”, the “vapor or sublimation pressure” value was found to be 101.3 ± 3.6 kPa.

Values taken from the NIST ThermoML archive (doi:10.1016/j.jct.2019.06.026).
